In patent US9182385B2, “Methods for diagnosis, prognosis and methods of treatment” (NODALITY, INC., priority 2007, dated 2015):

Tests used:
CLL cells = assay: Phospho-specific multiparametric flow cytometry of BCR signaling in CLL patient samples; type: cell-based, human
Method: (§1) Ramos cells were maintained and cultured using methods known in the art. Cells from CLL patients were obtained using methods known in the art.
(§2) The cell suspension was added drop-wise into media. […] Cells were incubated at 37° C. for 2 hours. […] Cells were aliquoted into wells.
(§3) Cells were washed twice. […] Cocktail • (i) CD3 pac blue=160 μl • (ii) CD4 APC=80 μl • (iii) CD8 PE Cy7=80 μl • (iv) CD5 PE Cy5=400 μl • (v) CD20 PerCP Cy5.5=800 μl • (vi) p-Erk=800 μl • (vii) p-BLNK=800 μl • (viii) p-Syk/ZAP70=800 μl • b. […] Each well received 100 μl of this cocktail mix.
Cells were prepared and stained as described above.

[1] = tested on: blood B cells from healthy donors
Method: BCR cross-linking and preparation for staining: Cells were thawed at 37° C. in a water bath until partially thawed (˜50%). Cells were thawed into 5% FBS/RPMI at room temperature. The cell suspension was added drop-wise into media. Cells were centrifuged at 900 RPM for 10 minutes with no brake. The supernatants were decanted and pellets resuspended in 25 milliliters (ml) of media. Cells were re-centrifuged at 900 RPM for 10 minutes, decanted again and resuspended in 5 ml of 1% FBS/RPMI. Cells were counted with a hemocytometer using trypan blue staining. The concentration of the cells was adjusted as necessary to reduce crowding. Cells were incubated at 37° C. for 2 hours. The final cell concentration, including additives and reagents (e.g. stimulant, Fab fragment, H2O2, aqua, etc.) was 1.6 million/ml. Cells were aliquoted into wells. […]
Analysis by Flow Cytometry: Between 10,000 and 100,000 un-gated events were collected for each sample on the BD LSR II flow cytometry machine. The fluorescent anti-bodies directed to extra-cellular markers (i.e. CD3, CD4, CD8, CD5 and CD20) were used to mark the cells and a hierarchical gating strategy was used to identify the B-Cells and mature B-Cell population among the recorded events as described below: • a. […] All the recorded events were also marked by the following intra-cellular markers p-Erk, p-Syk/Zap70, and p-BLNK. […]

Ramos cells = assay: Phospho-specific multiparametric flow cytometry of BCR signaling in Ramos cells; type: cell-based; conditions: FIG. 1, fluorescence above autofluorescence and background
Method: as §1, §2, §3

[2] = CD20+/CD5+ cell population of CLL samples, kinetics

Compound | PLCγ2 phosphorylation (CLL cells; [2]) | phosphorylation of rpS6 (CLL cells; [2]) | levels of phosphorylated p72SYK/p70ZAP, ERK1/2, BLNK, and PLCγ2 (CLL cells; CLL cells of some patients, independent of surface F(ab)2anti-μ ligation) | activation of Erk and Syk (CLL cells; CLL samples, inhibition of phosphatases, FIG. 6) | tonic BCR signaling revealed by inhibition of phosphatases (CLL cells; other CLL samples, FIG. 10) | responsiveness (phosphorylated p72SYK/p70ZAP, ERK1/2, BLNK, PLCγ2) (CLL cells; other CLL-B cells, even in the presence of F(ab)2anti-μ) | phosphorylation of p72SYK/p70ZAP, ERK1/2, BLNK, PLCγ2 ([1]; blood B cells from healthy donors) | activation of signaling post BCR ([1]; normal B cells, H2O2 by itself, FIG. 7) | activation of p-Erk and p-Syk/pZap70 (Ramos cells) | activation of p-Erk across patients (CLL cells; CLL patient samples, regardless of ZAP70 expression (summary)) | p-Erk and p-Syk phosphorylation (CLL cells; CLL samples with low and high frequency of ZAP70, FIG. 5) | Erk and Syk phosphorylation (CLL cells; other CLL samples, FIG. 9) | activation of Erk (CLL cells; pheresed CLL samples, FIG. 3)
OO [H2O2, hydrogen peroxide] | increased | attenuates | induced high-levels | activates | does not reveal strong tonic BCR signaling | significantly less responsive | failed to elicit a substantial increase | incapable of activating post BCR by itself | – | – | – | – | –
CCCCCCCCCCCCCC(=O)O[C@@H]1[C@@H](C)[C@@]2(O)[C@@H](C=C(CO)C[C@]3(O)C(=O)C(C)=C[C@@H]23)[C@@H]2C(C)(C)[C@]12OC(C)=O [PMA] | – | – | – | – | – | – | – | – | activates | comparable in all patients | modest | modest | activates
